Source: paper PMC8037182, “Solvothermal Synthesis of Multiple Dihydropyrimidinones at a Time as Inhibitors of Eg5” (Molecules, 2021)

Tested on: Hela cell line
Assay: Cytotoxicity MTS assay, Hela cell line
Type: cell-based
Conditions: for OD490 value, Mean / OD490 value, Well 1 / OD490 value, Well 2 / OD490 value, Well 3: Hela cell line, MTS
Experimental: The positive compounds (IC50 < 100 μM) obtained from the primary Eg5 motor protein ATPase assay were tested for antiproliferative activity in vitro against Caco-2 cell line, Hela cell line, L929 cell line and T24 cell line by performing MTS assay. Cells were introduced into 96-well plates at a density of 1000 cells per well. After 24 h incubation, the cells were exposed with compounds at final concentrations ranging from 0.5 to 100 µM for 24 h. DMSO was used at a final concentration of 0.025% as blank control, monastrol was used as the positive control. Then 20 µL (CellTiter 96® AQueous One Solution Promega, Madison, WI, USA) reagent was added in each well. After 2 h at 37 °C in a 80% humidified, 5% CO2 atmosphere, the absorbance at 490 nm was recorded using a microplate reader (BIO-RAD iMark^TM). The results were obtained in three independent duplicate experiments. The primary data were shown in Supplementary Materials Tables S4–S7. The IC50 values for these compounds were calculated from a non-linear regression graph plotted between the percentage of cell viability and concentration with SPSS17.0 software.

CCOc1ccccc1C1NC(=S)NC(C)=C1C(=O)Nc1ccc(Cl)cc1 (stereo not shown) [C9]
OD490 value, Mean (0.5μM, first assay): 2.5086 | OD490 value, Well 1 (0.5μM, first assay): 2.5337 | OD490 value, Well 2 (0.5μM, first assay): 2.5147 | OD490 value, Well 3 (0.5μM, first assay): 2.4773 | OD490 value, Mean (0.5μM, second assay): 2.5027 | OD490 value, Well 1 (0.5μM, second assay): 2.5377 | OD490 value, Well 2 (0.5μM, second assay): 2.5102 | OD490 value, Well 3 (0.5μM, second assay): 2.4603 | OD490 value, Mean (0.5μM, third assay): 2.5209 | OD490 value, Well 1 (0.5μM, third assay): 2.7845 | OD490 value, Well 2 (0.5μM, third assay): 2.5536 | OD490 value, Well 3 (0.5μM, third assay): 2.2245 | OD490 value, Mean (1μM, first assay): 2.3583 | OD490 value, Well 1 (1μM, first assay): 2.1436 | OD490 value, Well 2 (1μM, first assay): 2.5164 | OD490 value, Well 3 (1μM, first assay): 2.4149 | OD490 value, Mean (1μM, second assay): 2.3955 | OD490 value, Well 1 (1μM, second assay): 2.2145 | OD490 value, Well 2 (1μM, second assay): 2.4935 | OD490 value, Well 3 (1μM, second assay): 2.4784 | OD490 value, Mean (1μM, third assay): 2.4734 | OD490 value, Well 1 (1μM, third assay): 2.4685 | OD490 value, Well 2 (1μM, third assay): 2.5532 | OD490 value, Well 3 (1μM, third assay): 2.3985 | OD490 value, Mean (10μM, first assay): 2.3086 | OD490 value, Well 1 (10μM, first assay): 2.1660 | OD490 value, Well 2 (10μM, first assay): 2.3778 | OD490 value, Well 3 (10μM, first assay): 2.3820 | OD490 value, Mean (10μM, second assay): 2.1859 | OD490 value, Well 1 (10μM, second assay): 2.2135 | OD490 value, Well 2 (10μM, second assay): 2.1456 | OD490 value, Well 3 (10μM, second assay): 2.1987 | OD490 value, Mean (10μM, third assay): 2.4047 | OD490 value, Well 1 (10μM, third assay): 2.2123 | OD490 value, Well 2 (10μM, third assay): 2.5652 | OD490 value, Well 3 (10μM, third assay): 2.4365 | OD490 value, Mean (25μM, first assay): 1.8211 | OD490 value, Well 1 (25μM, first assay): 1.4666 | OD490 value, Well 2 (25μM, first assay): 1.9622 | OD490 value, Well 3 (25μM, first assay): 2.0346 | OD490 value, Mean (25μM, second assay): 1.8416 | OD490 value, Well 1 (25μM, second assay): 1.7589 | OD490 value, Well 2 (25μM, second assay): 1.8637 | OD490 value, Well 3 (25μM, second assay): 1.9021 | OD490 value, Mean (25μM, third assay): 1.8662 | OD490 value, Well 1 (25μM, third assay): 1.7769 | OD490 value, Well 2 (25μM, third assay): 1.8252 | OD490 value, Well 3 (25μM, third assay): 1.9965 | OD490 value, Mean (50μM, first assay): 1.6538 | OD490 value, Well 1 (50μM, first assay): 1.2953 | OD490 value, Well 2 (50μM, first assay): 1.8006 | OD490 value, Well 3 (50μM, first assay): 1.8654 | OD490 value, Mean (50μM, second assay): 1.6346 | OD490 value, Well 1 (50μM, second assay): 1.5694 | OD490 value, Well 2 (50μM, second assay): 1.6357 | OD490 value, Well 3 (50μM, second assay): 1.6987 | OD490 value, Mean (50μM, third assay): 1.6911 | OD490 value, Well 1 (50μM, third assay): 1.6532 | OD490 value, Well 2 (50μM, third assay): 1.7755 | OD490 value, Well 3 (50μM, third assay): 1.6445 | OD490 value, Mean (100μM, first assay): 1.1310 | OD490 value, Well 1 (100μM, first assay): 0.9154 | OD490 value, Well 2 (100μM, first assay): 1.2917 | OD490 value, Well 3 (100μM, first assay): 1.1859 | OD490 value, Mean (100μM, second assay): 1.0983 | OD490 value, Well 1 (100μM, second assay): 1.1234 | OD490 value, Well 2 (100μM, second assay): 1.1125 | OD490 value, Well 3 (100μM, second assay): 1.0589 | OD490 value, Mean (100μM, third assay): 1.1051 | OD490 value, Well 1 (100μM, third assay): 1.0232 | OD490 value, Well 2 (100μM, third assay): 1.1136 | OD490 value, Well 3 (100μM, third assay): 1.1784 | IC50 (Homo sapiens, HeLa, 24 h, MTS assay, 24 h exposure): 75.6 µM
